{
  "source": "patent US10905680B2",
  "about": "“Methods of treatment for cholestatic and fibrotic diseases” (Genfit, priority 2016, dated 2021)",
  "key": {"[1]": {"system": "human primary hepatic stellate cells (hHSC)", "assay": "TGFβ1-induced expression of α-SMA protein in human HSC (ELISA)", "assay_type": "cell-based", "conditions": "TGFβ1 1 ng/ml, 48 hours", "method": "Serum-deprived HSC were preincubated for 1 hour with NTZ (A) or TZ (B) before the activation with the profibrogenic cytokine TGFβ1 (1 ng/ml). After 48 hours of incubation, the expression of α-SMA was measured by ELISA. The obtained values were transformed into percentage inhibition over TGFβ1 control. Data are presented as mean (triplicates)±standard deviation (SD). Statistical analyses were performed by one-way ANOVA followed by Bonferroni post-hoc tests, using Sigma Plot 11.0 software. [*: p<0.05; **: p<0.01; ***: p<0.001 (comparison versus TGFβ1 1 ng/mL group)]. The curve fitting and the calculation of half maximal inhibitory concentration (IC50) were performed with XLFit software 5.3.1.3. The human primary hepatic stellate cells (hHSC) (Innoprot) were cultured in STeCM medium (ScienCell cat #5301) that was supplemented with 2% fetal bovine serum (FBS, ScienCell cat #0010), 1% penicillin/streptomycin (ScienCell cat #0503) and stellate cell growth supplement (SteCGS; ScienCell cat #5352). Cell culture flasks were coated with Poly-L Lysine (Sigma cat # P4707) for a better adherence. The human primary hepatic stellate cells (hHSC) (Innoprot) were cultured under standard conditions, as described above. The cells were subsequently plated at a density of 7×10^4 cells/well into 24-well plates for gene expression studies, and at a density of 2×10^4 cells/well into 96-well plates for the measure of α-SMA by ELISA. The next day, cell culture medium was removed, and cells were washed with PBS (Invitrogen cat #14190). hHSC were deprived for 24 hours in serum-free and SteCGS-free medium. For the treatments with NTZ or TZ, the serum-deprived hHSC were preincubated for 1 hour with the compounds followed by the addition of the profibrogenic stimuli TGFβ1 (PeproTech cat #100-21, 1 ng/mL) in serum-free and SteCGS-free medium for an additional 24 or 48 hour period (the timepoint is indicated in the figure legends). […] The level of α-SMA was measured using a Sandwich ELISA. […]"}, "[2]": {"system": "Normal Human Cardiac Fibroblasts (ventricle) (NHCF-V)", "assay": "TGFβ1-induced expression of α-SMA protein in human cardiac fibroblasts (ELISA)", "assay_type": "cell-based", "conditions": "concentration of 1 μM; TGFβ1 3 ng/ml, 48 hours", "method": "NTZ (A) or TZ (B) were added to serum-deprived cardiac fibroblasts (NHCF) 1 hour before the activation with TGFβ1 (3 ng/ml). After 48 hours of incubation, the expression of α-SMA was measured by ELISA. The obtained values were transformed into percentage inhibition over TGFβ1 control. Data are presented as mean (triplicates)±standard deviation (SD). Statistical analyses were performed by one-way ANOVA followed by Bonferroni post-hoc tests, using Sigma Plot 11.0 software. [*: p<0.05; **: p<0.01; ***: p<0.001 (comparison versus TGFβ1 3 ng/mL group)].\nThe Normal Human Cardiac Fibroblasts (ventricle) (NHCF-V) (Lonza) were isolated from normal adult heart tissue. Cells were cultured in Fibroblast Basal Medium (FBM) (Lonza cat # CC-3131) that was supplemented with FGM™-3 BulletKit™ kit (Lonza cat # CC-4525). The complete medium contains 10% fetal bovine serum. For the activation experiments with TGFβ1, the NHCF-V were plated at a density of 6×10^3 cells per well in 96-well plates. The next day, cell-culture medium was removed, and cells were washed with PBS (Invitrogen cat #14190). NHCF were deprived for 24 hours in serum-free, insulin-free and rhFGF-B-free medium. […]\nThe level of α-SMA was measured using a Sandwich ELISA. […]"}},
  "data": [
    {"compound": "O=C(Nc1ncc([N+](=O)[O-])s1)c1ccccc1O", "note": "[TZ, 2-hydroxy-N-(5-nitro-2-thiazolyl)benzamide]", "values": [
      {"measurement": "IC50", "setting": "[1]; Homo sapiens, 1 h preincubation, read-out: IC50 (level of α-SMA in TGFβ-induced HSCs)", "result": "100 to 3000", "unit": "nM"},
      {"measurement": "level of α-SMA in TGFβ-induced HSCs", "setting": "[1]", "result": "profile similar to the parent drug"},
      {"measurement": "antifibrotic effects (α-SMA) in normal human cardiac fibroblasts", "setting": "[2]", "result": "significant antifibrotic effects"}
    ]}
  ]
}
